Measured values as given in ChEMBL document CHEMBL3585297, “New amide derivatives of Probenecid as selective inhibitors of carbonic anhydrase IX and XII: biological evaluation and molecular modelling studies” (Bioorg Med Chem, 2015).

Tests used:
Carbonic anhydrase 9 = Carbonic anhydrase 9 (Homo sapiens, UniProt Q16790); assay: Inhibition of human carbonic anhydrase 9 by stopped-flow CO2 hydrase assay
Carbonic anhydrase 2 = Carbonic anhydrase 2 (Homo sapiens, UniProt P00918); assay: Inhibition of human carbonic anhydrase 2 by stopped-flow CO2 hydrase assay
Carbonic anhydrase 1 = Carbonic anhydrase 1 (Homo sapiens, UniProt P00915); assay: Inhibition of human carbonic anhydrase 1 by stopped-flow CO2 hydrase assay
Sequence of Carbonic anhydrase 1 (P00915 whole entry): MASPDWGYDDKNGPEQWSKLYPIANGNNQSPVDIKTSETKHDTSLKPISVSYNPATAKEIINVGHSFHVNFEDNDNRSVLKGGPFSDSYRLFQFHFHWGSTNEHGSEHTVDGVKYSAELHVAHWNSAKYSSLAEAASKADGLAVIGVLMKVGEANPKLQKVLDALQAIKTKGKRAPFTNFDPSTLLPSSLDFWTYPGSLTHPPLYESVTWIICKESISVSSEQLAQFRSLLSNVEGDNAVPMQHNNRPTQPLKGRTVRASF

SMILES	Ki (Carbonic anhydrase 9)	Ki (Carbonic anhydrase 2)	Ki (Carbonic anhydrase 1)
CCCN(CCC)S(=O)(=O)c1ccc(C(=O)Nc2ccccn2)cc1	0.199 µM	> 10 µM	
CCCN(CCC)S(=O)(=O)c1ccc(C(=O)NCC)cc1		> 10 µM	> 10 µM
CCCN(CCC)S(=O)(=O)c1ccc(C(=O)NC2CCCC(C)C2)cc1 (centres undefined)	0.188 µM	> 10 µM	> 10 µM
CCCN(CCC)S(=O)(=O)c1ccc(C(=O)NC2CCC(C)CC2)cc1 (centres undefined)	2.02 µM	> 10 µM	> 10 µM
CCCN(CCC)S(=O)(=O)c1ccc(C(=O)NCCCN2CCOCC2)cc1	0.213 µM	> 10 µM	> 10 µM
CCCN(CCC)S(=O)(=O)c1ccc(C(=O)NCCN2CCCCC2)cc1	1.26 µM	> 10 µM	> 10 µM
CCCN(CCC)S(=O)(=O)c1ccc(C(=O)NCCN(CC)CC)cc1	0.11 µM	> 10 µM	> 10 µM
CCCN(CCC)S(=O)(=O)c1ccc(C(=O)NCc2ccccc2)cc1	0.0206 µM	> 10 µM	> 10 µM
CCCN(CCC)S(=O)(=O)c1ccc(C(=O)Nc2ccccc2C)cc1	0.0613 µM	> 10 µM	> 10 µM
CCCN(CCC)S(=O)(=O)c1ccc(C(=O)Nc2ccncc2)cc1	2.04 µM	> 10 µM	> 10 µM
CCCN(CCC)S(=O)(=O)c1ccc(C(=O)Nc2ccccc2Cl)cc1	0.0236 µM	> 10 µM	> 10 µM
CCCN(CCC)S(=O)(=O)c1ccc(C(=O)Nc2ccc([N+](=O)[O-])cc2)cc1	0.246 µM	> 10 µM	> 10 µM
